Results from PubChem BioAssay AID2060898 (Molecular Pharmacology Branch, DTP, NCI, 2025).

System: 616215-338-R-J1-PDC complex spheroid viability
Test: Anticancer human tumor 616215-338-R-J1-PDC patient-derived colon adenocarcinoma cell line growth inhibition [RAS]
Details: for IC50: curve of first compound; for viability, T/C: stronger effect = lower value
Outline: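 Tumour cells grown as complex spheroids with HUVEC endothelial cells and mesenchymal stem cells, treated with RAS pathway inhibitor combinations. Each agent spans half-log steps from near clinical Cmax, or 10 microM where Cmax is unknown.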

[1] = second compound 0.000949 µM, first compound 0.0316 µM
[2] = second compound 0.000949 µM, first compound 0.1 µM
[3] = second compound 0.000949 µM, first compound 0.316 µM
[4] = second compound 0.000949 µM, first compound 1 µM
[5] = second compound 0.000949 µM, first compound 3.16 µM
[6] = second compound 0.000949 µM, first compound 10 µM
[7] = second compound 0.003 µM, first compound 0.0316 µM
[8] = second compound 0.003 µM, first compound 0.1 µM
[9] = second compound 0.003 µM, first compound 0.316 µM
[10] = second compound 0.003 µM, first compound 1 µM
[11] = second compound 0.003 µM, first compound 3.16 µM
[12] = second compound 0.003 µM, first compound 10 µM
[13] = second compound 0.00949 µM, first compound 0.0316 µM
[14] = second compound 0.00949 µM, first compound 0.1 µM
[15] = second compound 0.00949 µM, first compound 0.316 µM
[16] = second compound 0.00949 µM, first compound 1 µM
[17] = second compound 0.00949 µM, first compound 3.16 µM
[18] = second compound 0.00949 µM, first compound 10 µM
[19] = second compound 0.03 µM, first compound 0.0316 µM
[20] = second compound 0.03 µM, first compound 0.1 µM
[21] = second compound 0.03 µM, first compound 0.316 µM
[22] = second compound 0.03 µM, first compound 1 µM
[23] = second compound 0.03 µM, first compound 3.16 µM
[24] = second compound 0.03 µM, first compound 10 µM
[25] = second compound 0.0949 µM, first compound 0.0316 µM
[26] = second compound 0.0949 µM, first compound 0.1 µM
[27] = second compound 0.0949 µM, first compound 0.316 µM
[28] = second compound 0.0949 µM, first compound 1 µM
[29] = second compound 0.0949 µM, first compound 3.16 µM
[30] = second compound 0.0949 µM, first compound 10 µM
[31] = second compound 0.3 µM, first compound 0.0316 µM
[32] = second compound 0.3 µM, first compound 0.1 µM
[33] = second compound 0.3 µM, first compound 0.316 µM
[34] = second compound 0.3 µM, first compound 1 µM
[35] = second compound 0.3 µM, first compound 3.16 µM
[36] = second compound 0.3 µM, first compound 10 µM
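Also: spheroids exposed to agents for seven days before viability readout.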
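For viability, T/C in this document: 100% = DMSO vehicle control viability.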

## CCC(CC)c1cc(NC2CCC(N)C2)n2nccc2n1 (stereo unspecified) + C#Cc1c(F)ccc2cc(O)cc(-c3ncc4c(N5CC6CCC(C5)N6)nc(OCC56CCCN5CC(F)C6)nc4c3F)c12
Second compound 0.0316 µM
  IC50: 1780 nM
Second compound 0.1 µM
  IC50: 1780 nM
Second compound 0.316 µM
  IC50: 1840 nM
Second compound 1 µM
  IC50: 1850 nM
Second compound 3.16 µM
  IC50: 1510 nM
Second compound 10 µM
  IC50: 1240 nM
Second compound 0.0316 µM, first compound 0.0316 µM
  viability, T/C: 102%
Second compound 0.0316 µM, first compound 0.1 µM
  viability, T/C: 98.3%
Second compound 0.0316 µM, first compound 0.316 µM
  viability, T/C: 109%
Second compound 0.0316 µM, first compound 1 µM
  viability, T/C: 99.3%
Second compound 0.0316 µM, first compound 3.16 µM
  viability, T/C: 0.29%
Second compound 0.0316 µM, first compound 10 µM
  viability, T/C: 1.51%
Second compound 0.1 µM, first compound 0.0316 µM
  viability, T/C: 104%
Second compound 0.1 µM, first compound 0.1 µM
  viability, T/C: 105%
Second compound 0.1 µM, first compound 0.316 µM
  viability, T/C: 96.3%
Second compound 0.1 µM, first compound 1 µM
  viability, T/C: 99.9%
Second compound 0.1 µM, first compound 3.16 µM
  viability, T/C: 0.27%
Second compound 0.1 µM, first compound 10 µM
  viability, T/C: 0.21%
Second compound 0.316 µM, first compound 0.0316 µM
  viability, T/C: 112%
Second compound 0.316 µM, first compound 0.1 µM
  viability, T/C: 111%
Second compound 0.316 µM, first compound 0.316 µM
  viability, T/C: 101%
Second compound 0.316 µM, first compound 1 µM
  viability, T/C: 106%
Second compound 0.316 µM, first compound 3.16 µM
  viability, T/C: 0.21%
Second compound 0.316 µM, first compound 10 µM
  viability, T/C: 1.88%
Second compound 1 µM, first compound 0.0316 µM
  viability, T/C: 105%
Second compound 1 µM, first compound 0.1 µM
  viability, T/C: 110%
Second compound 1 µM, first compound 0.316 µM
  viability, T/C: 113%
Second compound 1 µM, first compound 1 µM
  viability, T/C: 106%
Second compound 1 µM, first compound 3.16 µM
  viability, T/C: 1.09%
Second compound 1 µM, first compound 10 µM
  viability, T/C: 1.83%
Second compound 3.16 µM, first compound 0.0316 µM
  viability, T/C: 115%
Second compound 3.16 µM, first compound 0.1 µM
  viability, T/C: 111%
Second compound 3.16 µM, first compound 0.316 µM
  viability, T/C: 121%
Second compound 3.16 µM, first compound 1 µM
  viability, T/C: 77.7%
Second compound 3.16 µM, first compound 3.16 µM
  viability, T/C: 0.19%
Second compound 3.16 µM, first compound 10 µM
  viability, T/C: 1.03%
Second compound 10 µM, first compound 0.0316 µM
  viability, T/C: 83.3%
Second compound 10 µM, first compound 0.1 µM
  viability, T/C: 74.5%
Second compound 10 µM, first compound 0.316 µM
  viability, T/C: 108%
Second compound 10 µM, first compound 1 µM
  viability, T/C: 61.3%
Second compound 10 µM, first compound 3.16 µM
  viability, T/C: 3.3%
Second compound 10 µM, first compound 10 µM
  viability, T/C: 0.3%

## NC1c2ccccc2OC12CCN(c1cnc3c(N4CCCc5ncccc54)n[nH]c3n1)CC2 (stereo unspecified) + CCn1c(-c2cc(N3CCN(C)CC3)cnc2C(C)OC)c2c3cc(ccc31)-c1csc(n1)CC(NC(=O)C1CC1C)C(=O)N1CCCC(N1)C(=O)OCC(C)(C)C2
Second compound 0.000949 µM
  IC50: 2240 nM
Second compound 0.003 µM
  IC50: 228 nM
Second compound 0.00949 µM
  IC50: < 31.6 nM
Second compound 0.03 µM
  IC50: < 31.6 nM
Second compound 0.0949 µM
  IC50: < 31.6 nM
Second compound 0.3 µM
  IC50: < 31.6 nM
[1]
  viability, T/C: 81.9%
[2]
  viability, T/C: 69.7%
[3]
  viability, T/C: 60%
[4]
  viability, T/C: 55.5%
[5]
  viability, T/C: 51.2%
[6]
  viability, T/C: 40.2%
[7]
  viability, T/C: 73.5%
[8]
  viability, T/C: 60.6%
[9]
  viability, T/C: 44.6%
[10]
  viability, T/C: 41.9%
[11]
  viability, T/C: 35.2%
[12]
  viability, T/C: 37.1%
[13]
  viability, T/C: 49.4%
[14]
  viability, T/C: 48.4%
[15]
  viability, T/C: 42.9%
[16]
  viability, T/C: 42.2%
[17]
  viability, T/C: 36.4%
[18]
  viability, T/C: 31.1%
[19]
  viability, T/C: 38.7%
[20]
  viability, T/C: 34.9%
[21]
  viability, T/C: 33.9%
[22]
  viability, T/C: 40.1%
[23]
  viability, T/C: 35.2%
[24]
  viability, T/C: 30.5%
[25]
  viability, T/C: 35.9%
[26]
  viability, T/C: 42.6%
[27]
  viability, T/C: 47.9%
[28]
  viability, T/C: 42.2%
[29]
  viability, T/C: 44.2%
[30]
  viability, T/C: 34.6%
[31]
  viability, T/C: 51.7%
[32]
  viability, T/C: 40.5%
[33]
  viability, T/C: 44.6%
[34]
  viability, T/C: 41.1%
[35]
  viability, T/C: 45.3%
[36]
  viability, T/C: 32.4%

## C[C@@H](NC(=O)c1ncnc(N)c1Cl)c1ncc(C(=O)Nc2cc(C(F)(F)F)c(Cl)cn2)s1 + CCn1c(-c2cccnc2C(C)OC)c2c3cc(ccc31)N1CCOC(CC(NC(=O)C(C(C)C)N(C)C(=O)C3(F)CCN(C(=O)C#CC(C)(C)N(C)C)CC3)C(=O)N3CCCC(N3)C(=O)OCC(C)(C)C2)C1
Second compound 0.000949 µM
  IC50: > 10000 nM
Second compound 0.003 µM
  IC50: > 10000 nM
Second compound 0.00949 µM
  IC50: > 10000 nM
Second compound 0.03 µM
  IC50: > 10000 nM
Second compound 0.0949 µM
  IC50: > 10000 nM
Second compound 0.3 µM
  IC50: 6230 nM
[1]
  viability, T/C: 108%
[2]
  viability, T/C: 103%
[3]
  viability, T/C: 100%
[4]
  viability, T/C: 117%
[5]
  viability, T/C: 113%
[6]
  viability, T/C: 61.5%
[7]
  viability, T/C: 94.2%
[8]
  viability, T/C: 105%
[9]
  viability, T/C: 104%
[10]
  viability, T/C: 120%
[11]
  viability, T/C: 107%
[12]
  viability, T/C: 68%
[13]
  viability, T/C: 103%
[14]
  viability, T/C: 100%
[15]
  viability, T/C: 101%
[16]
  viability, T/C: 112%
[17]
  viability, T/C: 121%
[18]
  viability, T/C: 72.7%
[19]
  viability, T/C: 101%
[20]
  viability, T/C: 98.6%
[21]
  viability, T/C: 116%
[22]
  viability, T/C: 111%
[23]
  viability, T/C: 112%
[24]
  viability, T/C: 68.6%
[25]
  viability, T/C: 109%
[26]
  viability, T/C: 115%
[27]
  viability, T/C: 116%
[28]
  viability, T/C: 86.1%
[29]
  viability, T/C: 90%
[30]
  viability, T/C: 54.6%
[31]
  viability, T/C: 113%
[32]
  viability, T/C: 111%
[33]
  viability, T/C: 100%
[34]
  viability, T/C: 79.8%
[35]
  viability, T/C: 66.5%
[36]
  viability, T/C: 39.7%
